Like-named read-outs stand apart in the source and are kept apart here.
Tests used:
HSA site II = target: T1, HSA site II (Homo sapiens, UniProt P02768); parameters: method as in PMID 32500882; conditions: cited from earlier work
T1 construct: purchased Sigma-Aldrich (Darmstadt, Germany) A8763

[1] = parameters: method as in earlier work; conditions: pH 7.40, cited from earlier work
HSA site I (Trp-214) = target: T2, HSA site I (Trp-214) (Homo sapiens, UniProt P02768); parameters: method as in PMID 32500882; conditions: cited from earlier work
T2 construct: purchased Sigma-Aldrich (Darmstadt, Germany) A8763
T2 sequence (P02768 25-609): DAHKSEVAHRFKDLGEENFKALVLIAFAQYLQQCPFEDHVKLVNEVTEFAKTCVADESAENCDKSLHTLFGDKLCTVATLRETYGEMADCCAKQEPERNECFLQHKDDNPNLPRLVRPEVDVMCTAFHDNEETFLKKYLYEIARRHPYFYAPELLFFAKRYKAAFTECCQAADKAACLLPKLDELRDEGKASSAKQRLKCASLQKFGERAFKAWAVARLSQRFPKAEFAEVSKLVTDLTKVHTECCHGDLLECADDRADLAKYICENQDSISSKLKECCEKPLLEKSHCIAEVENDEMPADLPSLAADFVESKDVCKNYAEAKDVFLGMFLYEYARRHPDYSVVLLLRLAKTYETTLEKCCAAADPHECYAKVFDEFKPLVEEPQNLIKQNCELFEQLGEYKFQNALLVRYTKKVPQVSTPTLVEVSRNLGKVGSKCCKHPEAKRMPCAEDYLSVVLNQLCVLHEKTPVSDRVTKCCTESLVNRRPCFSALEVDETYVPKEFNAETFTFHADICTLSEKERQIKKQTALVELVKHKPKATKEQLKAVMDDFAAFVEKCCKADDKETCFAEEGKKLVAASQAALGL

Colo320 [2] = system: Colo320; parameters: method as in PMID 32500882; conditions: cited from earlier work
Colo205 [3] = system: Colo205; parameters: method as in PMID 32500882; conditions: 72 h exposure; cited from earlier work
OATP2B1 = target: T3, OATP2B1 (Homo sapiens, UniProt O94956); assay: OATP uptake assay, OATP2B1; format: cell-based; conditions: reference inhibitor; experiments not documented
T3 construct: expressed in transfected cells; host or cells: A431 epidermoid carcinoma cells
T3 sequence (O94956 1-709): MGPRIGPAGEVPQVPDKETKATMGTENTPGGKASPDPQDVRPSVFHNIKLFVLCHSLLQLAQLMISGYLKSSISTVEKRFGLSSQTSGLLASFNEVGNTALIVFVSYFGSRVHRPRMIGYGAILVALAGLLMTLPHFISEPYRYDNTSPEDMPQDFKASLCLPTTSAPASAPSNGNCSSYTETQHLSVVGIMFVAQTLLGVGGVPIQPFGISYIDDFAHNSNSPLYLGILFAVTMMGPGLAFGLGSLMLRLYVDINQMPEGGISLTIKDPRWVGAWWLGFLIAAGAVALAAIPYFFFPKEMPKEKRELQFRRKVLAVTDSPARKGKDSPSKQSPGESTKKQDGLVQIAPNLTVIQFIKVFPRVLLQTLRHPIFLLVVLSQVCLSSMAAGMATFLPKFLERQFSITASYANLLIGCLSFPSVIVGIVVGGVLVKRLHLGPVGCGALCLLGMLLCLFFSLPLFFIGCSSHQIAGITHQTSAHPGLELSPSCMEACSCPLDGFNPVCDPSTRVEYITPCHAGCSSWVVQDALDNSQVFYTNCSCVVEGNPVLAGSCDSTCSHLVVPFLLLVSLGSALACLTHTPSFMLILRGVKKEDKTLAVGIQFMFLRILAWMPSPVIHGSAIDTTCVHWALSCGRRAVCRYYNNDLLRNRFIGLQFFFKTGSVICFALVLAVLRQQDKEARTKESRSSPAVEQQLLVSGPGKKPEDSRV
Procedure: (§1) Cell lines: A431 cells overexpressing OATP1B1 or OATP2B1, and their mock transfected controls were generated and characterized previously. The cell lines were cultured in DMEM (Gibco, Thermofisher Scientific, Waltham, MA, USA), supplemented with 10% fetal bovine serum, 2 mM L-glutamine, 100 μg/mL streptomycin, and 100 units/mL penicillin at 37 °C and 5% CO2.
(§2) OATP uptake assay: Prior to the experiment, A431 cells (8 × 10^4/well) were seeded on 96-well plates in 200 μL cell culture medium. After 16–24 h, the cells were washed with 200 μL PBS, three times and pre-incubated with 20–200 μM HQNO2-L-Pro, or buffer without HQNO2-L-Pro for 5 min at 37 °C in 50 μL HBSS (Hank’s Balanced Salt Solution, pH 7.4; OATP1B1) or uptake buffer (pH 5.5; OATP2B1 [63]). The reaction was started by the addition of disulfopyrene (6,8-dihydroxy-1,3-pyrenedisulfonic acid disodium salt, Sigma, Darmstadt, Germany) at a final concentration of 10 μM (OATP1B1) or pyranine (8-hydroxypyrene-1,3-pyrenetrisulfonic acid trisodium salt, Sigma, Darmstadt, Germany) at a final concentration of 20 μM (OATP2B1), and the cells were further incubated at 37 °C for 10 min (OATP1B1) or 15 min (OATP2B1). The reaction was stopped by removing the supernatant after which the cells were washed three times with ice-cold PBS. Fluorescence (in 200 μL PBS) was determined using an Enspire plate reader (PerkinElmer, Waltham, MA, USA) with excitation/emission wavelengths of 460/510 nm. OATP-dependent transport was calculated by subtracting fluorescence measured in mock transfected cells. Transport activity was calculated based on the fluorescence signal in the absence (100%) of HQNO2-L-Pro. Experiments were repeated in at least three biological replicates.

OATP1B1 = target: T4, OATP1B1 (Homo sapiens, UniProt Q9Y6L6); assay: OATP uptake assay, OATP1B1; format: cell-based; conditions: reference inhibitor; experiments not documented
T4 construct: expressed in transfected cells; host or cells: A431 epidermoid carcinoma cells
T4 sequence (Q9Y6L6 1-691): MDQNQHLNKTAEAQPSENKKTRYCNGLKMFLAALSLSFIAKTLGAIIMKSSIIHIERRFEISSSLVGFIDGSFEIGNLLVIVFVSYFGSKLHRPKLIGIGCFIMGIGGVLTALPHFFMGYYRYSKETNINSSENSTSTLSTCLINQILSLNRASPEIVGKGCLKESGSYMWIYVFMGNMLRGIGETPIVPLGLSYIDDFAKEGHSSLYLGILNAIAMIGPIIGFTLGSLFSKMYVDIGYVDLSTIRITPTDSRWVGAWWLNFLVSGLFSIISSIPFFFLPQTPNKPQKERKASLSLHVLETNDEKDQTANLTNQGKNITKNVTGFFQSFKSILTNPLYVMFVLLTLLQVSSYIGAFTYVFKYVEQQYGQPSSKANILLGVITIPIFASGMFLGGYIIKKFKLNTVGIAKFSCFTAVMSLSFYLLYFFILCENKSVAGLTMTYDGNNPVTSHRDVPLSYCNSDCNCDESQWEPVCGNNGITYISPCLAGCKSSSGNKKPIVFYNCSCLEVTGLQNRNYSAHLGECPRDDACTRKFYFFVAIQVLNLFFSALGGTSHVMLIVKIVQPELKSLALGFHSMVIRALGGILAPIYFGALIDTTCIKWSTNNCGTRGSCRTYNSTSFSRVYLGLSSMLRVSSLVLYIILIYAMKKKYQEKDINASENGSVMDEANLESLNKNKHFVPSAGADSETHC
Procedure: as §1, §2

MES-SA = assay: In vitro cytotoxicity, MES-SA cells (fluorescent protein readout); format: cell-based, human; conditions: Homo sapiens, MES-SA; 144 h exposure
Text: (§3) Cell lines: all cell culture reagents were obtained from Sigma-Aldrich; plasticware was purchased from Sarstedt (Nümbrecht, Germany); Human colon Colo205 (chemo-sensitive, ATCC-CCL-222) and Colo320 (Pgp/MDR1-expressing, doxorubicin-resistant, ATCC-CCL-220.1) adenocarcinoma cell lines were purchased from LGC Promochem, Teddington, UK; MES-SA and MES-SA/Dx5 uterine sarcoma cell lines were obtained from ATCC, where they were characterized by DNA fingerprinting. The expression of the Pgp efflux pump of MES-SA/Dx5 was proven by Western blot analysis in our former report, and was also reported for the Colo320 cells. The MES-SA and MES-SA/Dx5 cells used in this study were previously engineered to express the fluorescent proteins mCherry and eGFP, respectively, by lentiviral transduction.
(§4) MES-SA cell lines were maintained in DMEM, supplemented with 10% fetal bovine serum, 5 mmol/L glutamine, and 50 units/mL penicillin and streptomycin. Cells were tested and resulted negative for mycoplasma contamination with the MycoAlert mycoplasma detection Kit (Lonza Group, Basel, Switzerland). One week prior to the cytotoxicity assays, Dx5 eGFP cells were selected in 500 nM doxorubicin for one passage to ensure the overexpression of P-glycoprotein.
(§5) Cytotoxicity assays: The tested compounds were dissolved in PBS buffer to prepare 5 mM stock solutions, which were diluted in complete culture medium.
(§6) In the case of the MES-SA and MES-SA/Dx5 cells, cell suspensions of the fluorescent cell lines were pre-mixed in a 1:1 ratio and seeded in 20 µL medium in a density of 2500 cells/well (1250 cells/well each) in a 384-well plate. After an overnight incubation, a serial dilution of the compounds was added to the plate in a final volume of 60 µL. The P-gp inhibitor tariquidar was added to the cells 15 min prior to the test compounds. After 144 h of incubation, plates were measured for the fluorescent intensity of mCherry (EX/EM: 585 nm/610 nm) and eGFP (EX/EM: 485 nm/510 nm). Cell seeding, aspiration of medium, and addition of drugs were performed by a Hamilton StarLet automated liquid handling robot.
(§7) Inhibition of the cell growth (expressed as IC50: inhibitory concentration that reduces by 50% the growth of the cells exposed to the tested compounds) was determined from the sigmoid curve where 100 − ((ODsample − ODmedium control)/(ODcell control − ODmedium control)) × 100 values were plotted against the logarithm of compound concentrations. Curves for the data obtained on Colo205 and Colo320 cells were fitted by GraphPad Prism software (2021, Graphpad Software, version 7.00, San Diego, CA, USA) using the sigmoidal dose–response model (comparing variable and fixed slopes). From the MES-SA cell data, the IC50 values were calculated by our custom program, written by J. Sessler in C#. The p values were calculated by Student’s t-test. The IC50 values were always obtained from at least three independent experiments.

Colo205 [4] = assay: In vitro cytotoxicity, Colo205 cells (MTT); format: cell-based, human; conditions: Homo sapiens, COLO 205; 72 h exposure
Text: as §3
(§8) The colon adenocarcinoma cells were cultured in RPMI 1640 medium supplemented with 10% heat-inactivated fetal bovine serum, 2 mM L-glutamine, 1 mM sodium pyruvate, and 100 mM HEPES. The cells were incubated at 37 °C, in a 5% CO2, 95% air atmosphere.
as §5
(§9) In the case of the Colo205 and Colo320 cells, two-fold serial dilutions were prepared in 100 μL medium. The semi-adherent colon adenocarcinoma cells were treated with Trypsin-Versene (EDTA) solution. They were adjusted to a density of 1 × 10^4 cells in 100 μL of RPMI 1640 medium and were added to each well, with the exception of the medium control wells. The final volume of the wells containing compounds and cells was 200 μL. The plates containing Colo205 and Colo320 cells were incubated at 37 °C for 72 h; at the end of the incubation period, 20 μL of 3-(4,5-dimethyl-2-thiazolyl)-2,5-diphenyl-2H-tetrazolium bromide (MTT) solution (from a stock solution of 5 mg/mL) was added to each well. After incubation at 37 °C for 4 h, 100 μL of sodium dodecyl sulfate (SDS) solution (10% in 0.01 M HCI) was added to each well, and the plates were further incubated at 37 °C overnight. Cell growth was determined by measuring the optical density (OD) at 540/630 nm with a Multiskan EX plate reader (Thermo Labsystems, Cheshire, WA, USA).
Inhibition of the cell growth (expressed as IC50: inhibitory concentration that reduces by 50% the growth of the cells exposed to the tested compounds) was determined from the sigmoid curve where 100 − ((ODsample − ODmedium control)/(ODcell control − ODmedium control)) × 100 values were plotted against the logarithm of compound concentrations. Curves for the data obtained on Colo205 and Colo320 cells were fitted by GraphPad Prism software (2021, Graphpad Software, version 7.00, San Diego, CA, USA) using the sigmoidal dose–response model (comparing variable and fixed slopes). […]

Colo320 [5] = assay: In vitro cytotoxicity, Colo320 cells (MTT); format: cell-based, human; conditions: Homo sapiens, COLO 320; 72 h exposure
Text: as §3, §8, §5, §9, §7

MES-SA/Dx5 = assay: In vitro cytotoxicity, MES-SA/Dx5 cells (fluorescent protein readout); format: cell-based, human; conditions: Homo sapiens, MES-SA/Dx5; 144 h exposure
Text: as §3, §4, §5, §6, §7

T1 sequence (P02768 25-609): as the sequence (P02768 25-609) above

Q: For `Cc1ccc(C(C)C)cc1.O=C(O)[C@@H]1CCC[NH+]1Cc1cc(Cl)c2ccc[n+]3c2c1[O][Ru-]3[Cl].[Cl-]` [RuCym-HQCl-L-Pro], which “DG marker displacement constant logKDG'” value (HSA site II) is on record?
A: The value was 6.1.

Q: What about the “log D7.4” value ([1]; 24 mM chloride) of the same compound?
A: Its value is “+0.09 ± 0.03”.

Q: What about the “log D7.4” value ([1]; 100 mM chloride) of the same compound?
A: Its value is “+0.46 ± 0.03”.

Q: What about the “quenching constant logKQ'” value (HSA site I (Trp-214)) of the same compound?
A: Its value is 5.7.

Q: What about the IC50 (Colo320 [2]; 72 h exposure) of the same compound?
A: The IC50 was over 100 µM.

Q: What about the “Selectivity ratio IC50 (Colo205)/IC50 (Colo320)” value (Colo320 [2]; calculated from IC50 values taken from ref 12) of the same compound?
A: Its value is at most 0.68.

Q: What about the IC50 (Colo205 [3]) of the same compound?
A: Its IC50 is 68 ± 11 µM.

Q: Which “effect on OATP2B1 transport” value (OATP2B1) does the source give for `O=C1OC(c2ccc(O)c(S(=O)(=O)O)c2)(c2ccc(O)c(S(=O)(=O)O)c2)c2c(Br)c(Br)c(Br)c(Br)c21` [bromosulfophthalein, reference compound] here?
A: Its value is “inhibited the transport”.

Q: What about the “effect on OATP1B1 transport” value (OATP1B1) of the same compound?
A: The value was “inhibited the transport”.

Q: What does the source list for `COc1cccc2c1C(=O)c1c(O)c3c(c(O)c1C2=O)C[C@@](O)(C(=O)CO)C[C@@H]3O[C@H]1C[C@H](N)[C@H](O)[C@H](C)O1` [doxorubicin, reference compound]?
A: IC50 (MES-SA): 0.03 ± 0.01 µM; IC50 (Colo205 [4]): 0.71 ± 0.02 µM; IC50 (Colo320 [5]): 5.4 ± 0.9 µM; IC50 (MES-SA/Dx5): 4 ± 1 µM
